Source: US20260306460A1, “COMPOSITION FOR REMOVING AND INHIBITING SENESCENT CELLS, AND USES THEREOF” (LIFECEUTIX CO., LTD., priority 2023, published 2026)

Legend:
Type in all cases: in vivo, mouse
[1] = system: naturally aged C57BL6J mice; assay: Joint aging (arthritis marker mRNA) in naturally aged mice, Example 21-12, Table 27
Description: (§1) 22-month-old female C57BL6J mice (KRIBB Laboratory Animal Resource Center) were acclimated to the experimental environment for one week, after which the aged mice were randomly assigned to experimental and control groups. Eight-week-old, non-aged mice served as controls. LX-403 was mixed in a 10% ethanol solution of PEG400 and administered orally at a concentration of 25 mg/kg daily for 21 days, or administered to the skin, joints, or eyes at a concentration of 1 μM. LX-1801 was mixed in distilled water with 4% DMSO, 30% PEG300, and 5% Tween80 and administered to the skin, joints, or eyes at a concentration of 0.4 μM daily for 21 days. LX-2001 was mixed in PBS and administered to the skin, joints, or eyes at a concentration of […] daily for 21 days. LX-2002 was mixed in distilled water with 4% DMSO, 30% PEG300, and 5% Tween80 and administered to the skin, joints, or eyes at a concentration of 2 μM daily for 21 days. […] LX-2005 was mixed in distilled water with 4% DMSO, 30% PEG300, and 5% Tween80 and administered to the skin, joints, or eyes at a concentration of 90 μM daily for 21 days. LX-2007 was mixed in distilled water with 4% DMSO, 30% PEG300, and 5% Tween80 and administered to the skin, joints, or eyes at a concentration of 90 μM daily for 21 days. […] LX-3002 was mixed in distilled water with 4% DMSO, 30% PEG300, and 5% Tween80 and administered orally at a concentration of 10 mg/kg daily for 21 days. […] LX-5411 was mixed in 5% PBS and administered orally at a concentration of 10 mg/kg daily for 21 days or administered to the skin, joints, or eyes at a concentration of 3 μM. LX-5701 was mixed in PBS and administered orally at a concentration of 360 mg/kg daily for 21 days. LX-6807 was mixed in saline and administered intraperitoneally at a concentration of 1 mg/kg daily for 21 days. LX-2101 or LX-2102 was mixed in PBS solution with 5% DMSO and administered intraperitoneally at a concentration of 20 mg/kg or 10 mg/kg, respectively, daily for 21 days. The control group received only the solution in the same volume. After the end of drug administration, the methods described in each example below were performed.
(§2) RNA was extracted from joint tissue as described in Example 7-2 of WO2023-085787 A1, and qRT-PCR was performed using the synthesized cDNA. […] To analyze joint pain due to joint aging, hotplate analysis was performed. Specifically, thermal pain thresholds were measured using a hot plate. After acclimating mice to a temperature of 30° C. for 10 minutes, the time required for hind paw licking or jumping responses to occur at 55° C. was measured. To prevent tissue damage, the response was measured for less than 30 seconds, and the average value was used from five measurements.

[2] = system: naturally aged C57BL6J mice; assay: Frailty (open field, wire hanging, grip strength, muscle and fat tissue) in naturally aged mice, Example 21-7, Table 23; conditions: for Fat Mass (g): inguinal and epididymal fat, untreated aged 0.82 (±0.19); for Muscle Mass (g): quadriceps and gastrocnemius, untreated aged 0.64 (±0.06); for Grip Sterenght Test Strength (%) / Open Field Test Time in Center (%) / Wire Hanging Test Time (%): untreated aged = 100%
Description: as §1
To analyze frailty due to aging in mice, an activity test (open field test), an endurance test (wire hanging test), and a muscle strength and grip strength test (grip strength test) were performed using the same method as in Example 7-7 of WO2023-085787 A1. The table below quantitatively represents the results of activity, endurance, muscle strength, and grip strength, which are criteria for assessing frailty, under conditions in which aging was induced and the test compound was not administered or administered. The amount of each evaluation after aging was calculated as 100% and compared with the amount of each evaluation after treatment with the drug of the present invention.

[3] = system: obesity-induced aged C57BL6J mice; assay: Anxiety, depression, lethargy (open field test) in obesity-aged mice, Example 23-4, Table 44; conditions: for geriatric depression: obesity-aged mice; for Open Field Test Time in Center: obesity-induced aged mice, daily for 21 days, activity after obesity-induced aging calculated as 100%
How it was run: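 Male C57BL6J mice were made obese on a high-fat diet from 15 weeks of age. Compounds were given daily for 21 days: LX-3002 10 mg/kg orally, LX-5701 360 mg/kg orally, LX-6807 1 mg/kg intraperitoneally, with vehicle-treated controls. Open-field activity was then expressed relative to obese untreated mice set at 100%.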

[4] = system: naturally aged C57BL6J mice; assay: Geriatric depression and anxiety in aged mice, Example 21-8; conditions: for amount of SASP, p16, SA-β-gal, lipofuscin / symptoms of geriatric depression and anxiety: aged mice; for amount of SASP in serum and tissues: mice of Examples 21-5 and 21-6
Text: The amount of senescent-associated secretory factor (SASP) in serum and tissues collected from mice of Examples 21-5 and 21-6 was reduced by treatment with LX-5701, LX-2101, or LX-2102. It was confirmed that removing senescent cells, which increase with aging in mice, and effectively reducing the amount of senescent-associated secretory factor (SASP) can improve symptoms of geriatric depression and anxiety.

[5] = system: naturally aged C57BL6J mice; assay: Hot plate joint pain test in naturally aged mice, Example 21-12, Table 27; conditions: hot plate 55° C., untreated aged 6.9 (±1.8)
Description: as §1, §2

## Cc1cccc([C@H](C)c2cnc[nH]2)c1C [LX-6807, Dexmedetomidine]
[1]
  Col2a1 mRNA (fold): 3.5 (±0.2) fold
[2]
  Fat Mass (g): 1.08 (±0.15) g
  Muscle Mass (g): 0.74 (±0.04) g
  Grip Sterenght Test Strength (%): 128 (±6.2) %
  Open Field Test Time in Center (%): 269 (±13.3) %
  Wire Hanging Test Time (%): 156 (±16.4) %
[3]
  geriatric depression: similarly improving geriatric depression
  Open Field Test Time in Center: 202 (±18.2) %
[4]
  amount of SASP, p16, SA-β-gal, lipofuscin: reduced
  symptoms of geriatric depression and anxiety: improved
[5]
  Response time (s): 4.8 (±0.4) s

## C[C@H]1[C@H](C)CC[C@]2(C(=O)O)CC[C@]3(C)C(=CC[C@@H]4[C@@]5(C)C[C@@H](O)[C@H](O)C(C)(C)[C@@H]5CC[C@]43C)[C@H]12 [LX-2002, Corosolic acid]
[1]
  Col2a1 mRNA (fold): 1.7 (±0.3) fold
[5]
  Response time (s): 5.3 (±0.6) s

## C[C@H]1[C@H](C)CC[C@]2(C(=O)O)CC[C@]3(C)C(=CC[C@@H]4[C@@]5(C)CC[C@H](O)C(C)(C)[C@@H]5CC[C@]43C)[C@H]12 [LX-2001, Ursolic acid]
[1]
  Col2a1 mRNA (fold): 1.8 (±0.2) fold
[5]
  Response time (s): 5.0 (±0.9) s

## CC1(C)CC[C@]2(C(=O)O)CC[C@]3(C)C(=CC[C@@H]4[C@@]5(C)CC[C@H](O)C(C)(C)[C@@H]5CC[C@]43C)[C@@H]2C1 [LX-2003, Oleanolic acid]
[1]
  Col2a1 mRNA (fold): 1.9 (±0.2) fold
[5]
  Response time (s): 5.1 (±0.7) s

## C#CC(=O)N1[C@@H](CCCC)Cc2cc(OC)ccc2[C@@H]1c1ccc(NC23CC4CC(CC(C4)C2)C3)cc1 [LX-5411]
[1]
  Col2a1 mRNA (fold): 3.3 (±0.3) fold
[3]
  geriatric depression: similarly improving geriatric depression
[4]
  amount of SASP, p16, SA-β-gal, lipofuscin: reduced
  symptoms of geriatric depression and anxiety: improved
[5]
  Response time (s): 4.7 (±0.4) s

## CC1(C)CC[C@]2(NC(=O)C(C)(F)F)CC[C@]3(C)[C@H](C(=O)C=C4[C@@]5(C)C=C(C#N)C(=O)C(C)(C)[C@@H]5CC[C@]43C)[C@@H]2C1 [LX-2101, Omaveloxolone]
[1]
  Col2a1 mRNA (fold): 1.9 (±0.2) fold
[2]
  Fat Mass (g): 1.15 (±0.09) g
  Muscle Mass (g): 0.72 (±0.05) g
  Grip Sterenght Test Strength (%): 121 (±4.1) %
  Open Field Test Time in Center (%): 145 (±10.2) %
  Wire Hanging Test Time (%): 117 (±3.8) %
[3]
  geriatric depression: similarly improving geriatric depression
[4]
  amount of SASP, p16, SA-β-gal, lipofuscin: reduced
  symptoms of geriatric depression and anxiety: improved
  amount of SASP in serum and tissues: reduced
[5]
  Response time (s): 5.1 (±0.4) s

## C=C(C)[C@@H]1CC[C@]2(C(=O)O)CC[C@]3(C)[C@H](CC[C@@H]4[C@@]5(C)CC[C@H](O)C(C)(C)[C@@H]5CC[C@]43C)[C@@H]12 [LX-2005, Betulinic acid]
[1]
  Col2a1 mRNA (fold): 2.2 (±0.1) fold
[5]
  Response time (s): 4.9 (±1.2) s

## CC1(C)C=C2[C@H]3CC[C@@H]4[C@@]5(C)CCC(=O)C(C)(C)[C@@H]5CC[C@@]4(C)[C@]3(C)CC[C@@]2(C(=O)O)CC1 [LX-2007, Moronic acid]
[1]
  Col2a1 mRNA (fold): 1.6 (±0.2) fold
[5]
  Response time (s): 5.8 (±0.5) s

## Tocofersolan [LX-3001]
[2]
  Fat Mass (g): 0.95 (±0.12) g
  Muscle Mass (g): 0.70 (±0.1) g
  Grip Sterenght Test Strength (%): 115 (±4.7) %
  Open Field Test Time in Center (%): 187 (±12.9) %
  Wire Hanging Test Time (%): 126 (±11.4) %
[3]
  Open Field Test Time in Center: 168 (±11.9) %
[4]
  amount of SASP, p16, SA-β-gal, lipofuscin: reduced
  symptoms of geriatric depression and anxiety: improved
[5]
  Response time (s): 6.1 (±0.6) s

## O=C(C(C[N+](=O)[O-])=NO)N1CCN(C(c2ccc(Cl)cc2)c2ccc(Cl)cc2)CC1 [LX-403]
[1]
  Col2a1 mRNA (fold): 2.9 (±0.2) fold
[5]
  Response time (s): 5.6 (±0.7) s

## COC(=O)[C@H]1Cc2c([nH]c3ccccc23)[C@H](c2ccc(S(C)(=O)=O)cc2)N1C(=O)CCl [LX-5401, methyl (1S,3R)-2-(2-chloroacetyl)-1-(4-(methylsulfonyl)phenyl)-2,3,4,9-tetrahydro-1H-pyrido[3,4-b]indole-3-carboxylate]
[3]
  geriatric depression: similarly improving geriatric depression
[4]
  amount of SASP, p16, SA-β-gal, lipofuscin: reduced
  symptoms of geriatric depression and anxiety: improved
[5]
  Response time (s): 5.9 (±0.2) s

## COC(=O)[C@]12CCC(C)(C)C[C@H]1[C@H]1C(=O)C=C3[C@@]4(C)C=C(C#N)C(=O)C(C)(C)[C@@H]4CC[C@@]3(C)[C@]1(C)CC2 [LX-2102, Bardoxolone methyl]
[2]
  Fat Mass (g): 0.97 (±0.16) g
  Muscle Mass (g): 0.76 (±0.05) g
  Grip Sterenght Test Strength (%): 116 (±9.2) %
  Open Field Test Time in Center (%): 109 (±8.6) %
  Wire Hanging Test Time (%): 120 (±7.5) %
[4]
  amount of SASP in serum and tissues: reduced

## CCCC\C=C/C=C/C=C\CCCCCCCC(=O)O [LX-2707, Punicic acid]
[2]
  Fat Mass (g): 0.98 (±0.20) g
  Muscle Mass (g): 0.67 (±0.07) g
  Grip Sterenght Test Strength (%): 117 (±3.6) %
  Open Field Test Time in Center (%): 198 (±19.4) %
  Wire Hanging Test Time (%): 135 (±13.3) %
[3]
  geriatric depression: similarly improving geriatric depression
  Open Field Test Time in Center: 224 (±12.8) %
[4]
  amount of SASP, p16, SA-β-gal, lipofuscin: reduced
  symptoms of geriatric depression and anxiety: improved
[5]
  Response time (s): 5.4 (±0.6) s

## C[C@@H]1CC[C@@]23C[C@H](O)C(=O)[C@@]2(O)[C@]1(C)[C@H](OC(=O)CCl)C[C@@H](C1=CCn2c(=O)n(-c4ccccc4)c(=O)n2C1)[C@@H]3C [LX-1801, (2S,3aS,4S,5R,7R,8S,8aS,11R)-7-(1,3-Dioxo-2-phenyl-2,3,5,8-tetrahydro-1H-[1,2,4]triazolo[1,2-a]pyridazin-6-yl)-2,3a-dihydroxy-4,8,11-trimethyl-3-oxooctahydro-1H-4,8a-propanoazulen-5-yl 2-Chloroacetate]
[1]
  Col2a1 mRNA (fold): 2.6 (±0.2) fold
[5]
  Response time (s): 4.9 (±1.1) s

## COC(=O)c1ccc([C@H]2c3[nH]c4ccccc4c3C[C@H](C(=O)OC)N2C(=O)CCl)cc1 [LX-405]
[3]
  geriatric depression: similarly improving geriatric depression
[4]
  amount of SASP, p16, SA-β-gal, lipofuscin: reduced
  symptoms of geriatric depression and anxiety: improved
